# In publication PMC12039421 (Animal Cells and Systems, 2025):
# Tests used:
# ERα [1] = details: cited from earlier work
# ERα [2] = details: ref ICCVAM [2003]; cited from earlier work
# human ERα-LBD = target: T1, human ERα-LBD (Homo sapiens, UniProt P03372); test: biochemical; format: binding
# T1 sequence (P03372 304-554): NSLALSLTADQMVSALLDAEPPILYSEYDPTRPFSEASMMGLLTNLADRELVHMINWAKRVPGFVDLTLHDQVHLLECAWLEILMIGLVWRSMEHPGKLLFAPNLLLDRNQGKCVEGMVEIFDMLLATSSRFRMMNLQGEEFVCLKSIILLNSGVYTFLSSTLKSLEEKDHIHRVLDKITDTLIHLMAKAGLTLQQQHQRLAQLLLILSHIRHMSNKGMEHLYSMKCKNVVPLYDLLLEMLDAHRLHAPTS
# human ERβ-LBD = human ERβ-LBD (Homo sapiens, UniProt Q92731); test: Isothermal titration calorimetry; format: binding
# Chain of human ERβ-LBD (Q92731 264-498): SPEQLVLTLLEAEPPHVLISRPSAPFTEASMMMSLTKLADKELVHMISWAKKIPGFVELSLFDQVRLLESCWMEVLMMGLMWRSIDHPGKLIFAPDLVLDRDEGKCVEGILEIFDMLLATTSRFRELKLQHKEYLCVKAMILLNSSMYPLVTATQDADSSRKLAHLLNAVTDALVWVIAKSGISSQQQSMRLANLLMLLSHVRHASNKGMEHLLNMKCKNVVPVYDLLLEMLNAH
# [3] = ITC, 25 °C, one binding site model
compound,measurement,setting,value
C[C@]12CC[C@H]3[C@@H](CCC4=CC(=O)CC[C@@]43C)[C@@H]1CC[C@@H]2O [testosterone],transcriptional response in TG 455 (in words),ERα [1]; ref ICCVAM [2003],fails to induce downstream transcriptional responses
same,ER binding in TG 493 (in words),ERα [2],may bind to the ER
CCC(C)(c1ccc(O)cc1)c1ccc(O)cc1 [Bisphenol B],Kd,human ERα-LBD,112 µM
same,Kd,human ERβ-LBD,51.3 µM
CC(C)(C)CC(C)(C)c1ccc(O)cc1 [4-tert-Octylphenol],Kd,human ERβ-LBD,15.9 µM
CC(C)C(=O)Nc1ccc([N+](=O)[O-])c(C(F)(F)F)c1 [Flutamide],Kd (ER α),human ERα-LBD; [3],no binding
same,Kd (ER β),human ERβ-LBD; [3],no binding
same,activity in previous TG 455 (in words),"ERα [1]; previous TG 455, ref Zacharia [2017]",no activity
